In patent US12006296B1, “5-(4-methoxyphenyl)-1-hexyl-2-(4-nitrophenyl)-4-phenyl-1H-imidazoleas an antimicrobial compound” (KING FAISAL UNIVERSITY, priority 2023, dated 2024):

Key:
Assay type in all cases: cell-based
[1] = tested on: Ps. aeruginosa; experiment: Antimicrobial testing by agar dilution, Ps. aeruginosa; details: Pseudomonas aeruginosa; after 10, 20, 40 and 60 min at all dilutions 1:100, 1:200, 1:400, 1:800; summary in words
Procedure: (§1) The antimicrobial properties of the 5-(4-methoxyphenyl)-1-hexyl-2-(4-nitrophenyl)-4-phenyl-1H-imidazole was studied by the method of agar dilution. Test solutions of each compound was prepared in concentration of 1% using dimethylformamide as a solvent then they are diluted in physiological solution to obtain the final experimental dilutions 1:100, 1:200, 1:400, 1:800. The effect of these substances are compared with furacillin in a controllable study. The testing microbes used were gram positive bacteria St. Aereus, gram negative bacteria E. Coli, Ps. aeruginosa and Candida albicans fungi were taken. The experiments used for this survey were meat-pentonlu agar (EPA) for cultivation of bacteria and Saburo environment for fungi. Each experiment used 1 ml of test solution on each plate 500 min. Add 2 drops of emulsified with microbes feel. All experimental samples were taken from the agar after 10, 20, 40, 60 minutes in the environment on the basis of Patrk planted. Bacteria were cultivated at a temperature of 37° C. for 1 day and the mushroom was kept in a thermostat for […] at a temperature of 28° C. in the. Then results were checked.

[2] = tested on: E. Coli; experiment: Antimicrobial testing by agar dilution, E. Coli; details: Escherichia coli; after 10, 20, 40 and 60 min at all dilutions 1:100, 1:200, 1:400, 1:800; summary in words
Procedure: as §1

[3] = tested on: Candida albicans; experiment: Antimicrobial testing by agar dilution, Candida albicans; details: after 10, 20, 40 and 60 min at all dilutions 1:100, 1:200, 1:400, 1:800, summary in words
Procedure: as §1

[4] = tested on: St. Aereus; experiment: Antimicrobial testing by agar dilution, St. Aereus; details: Staphylococcus aureus; after 10, 20, 40 and 60 min at all dilutions 1:100, 1:200, 1:400, 1:800; summary in words
Procedure: as §1

Measured: inhibition activity

CCCCCCn1c(-c2ccc([N+](=O)[O-])cc2)nc(-c2ccccc2)c1-c1ccc(OC)cc1 [5-(4-methoxyphenyl)-1-hexyl-2-(4-nitrophenyl)-4-phenyl-1H-imidazole]
most higher inhibition activity: [1] | [2] | [3] | [4]
